Assay results as given in PubChem BioAssay (NCI).
Where “and” joins values, the source holds several entries; their conditions need not be identical. Identical values can stand only once.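 Grown in 96-well plates, cells were treated for 48 hours with each compound at five concentrations. Insufficient inhibition: endpoint recorded as highest concentration tested. GI50: concentration for 50% inhibition of growth. TGI: total growth inhibition.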

How the values were obtained:
Assay in all cases: inhibition of tumour cell growth, NCI panel, 48 h
[1] = test system: ACHN renal
[2] = test system: COLO 205 colon
[3] = test system: HOP-62 NSCLC
[4] = test system: IGROV1 ovarian
[5] = test system: KM12 colon
[6] = test system: MOLT-4 leukemia
[7] = test system: NCI-H522 lung
[8] = test system: SF-539 CNS
[9] = test system: SK-OV-3 ovarian
[10] = test system: U251 CNS

| Compound | TGI [1] | TGI [2] | TGI [3] | TGI [4] | TGI [5] [µM] | TGI [6] [µM] | TGI [7] | TGI [8] [µM] | TGI [9] [µM] | TGI [10] [µM] | GI50 [1] | GI50 [2] [µM] | GI50 [4] | GI50 [5] [µM] | GI50 [6] | GI50 [7] | GI50 [8] [µM] | GI50 [9] | GI50 [10] [µM] | GI50 [3] |
| --- | --- | --- | --- | --- | --- | --- | --- | --- | --- | --- | --- | --- | --- | --- | --- | --- | --- | --- | --- | --- |
| CCCCCCCCCCCCCCCCCC(=O)OCC1OC(OC)C(NC(=O)N(CCCl)N=O)C(O)C1O (configuration not stated) | 47.3 µM | > 100 µM | > 100 µM | > 100 µM | 67.9 | 57.3 | 38.3 µM | 24.2 |  |  |  |  |  |  |  |  |  |  |  |  |
| CCOC(=O)C12CC(C)=C(C)CC1CCCc1ccccc12 (configuration not stated) | 36 µM | 33.9 µM | > 100 µM | > 100 µM | > 100 | 52.3 | 39.5 µM | 85.7 | > 100 | 39.6 |  |  |  |  |  |  |  |  |  |  |
| Cc1cc2c(cc1Cl)SC(c1ccccc1O)NS2(=O)=O (configuration not stated) | > 100 µM | 69 µM | > 100 µM | > 100 µM | > 100 | > 100 | > 100 µM | > 100 | > 100 | > 100 |  |  |  |  |  |  |  |  |  |  |
| Cn1c(=O)ccc2c(=O)c3ccccc3oc21 | > 100 µM | > 100 µM | > 100 µM | > 100 µM | > 100 |  | > 100 µM | > 100 | > 100 | > 100 |  |  |  |  |  |  |  |  |  |  |
| O=C([CH-]C(=O)c1ccccc1)c1ccccc1.O=C([CH-]C(=O)c1ccccc1)c1ccccc1.O=C([CH-]C(=O)c1ccccc1)c1ccccc1.[Cl-].[Hf+4] | > 100 µM | > 100 µM |  | > 100 µM | > 100 | > 100 | 62.8 µM | 41.8 | 62.3 | > 100 | 33.9 µM | 23.9 | 33.3 µM | 21.1 | 11.1 µM | 12.6 µM | 17.2 | 22.7 µM | 19.1 |  |
| O=C(CSSCC(=O)OCCS(=O)(=O)Nc1ccc(Br)cc1)OCCS(=O)(=O)Nc1ccc(Br)cc1 | 82.8 µM | 62.2 µM |  | 88.7 µM | 30 | 15.4 | 24 µM | 32.8 | 89.8 | > 100 |  |  |  |  |  |  |  |  |  |  |
| Cc1cn(Cc2cn(CC3OC(n4cc(C)c(=O)[nH]c4=O)CC3O)nn2)c(=O)[nH]c1=O (configuration not stated) | > 100 µM | > 100 µM | > 100 µM |  | > 100 | > 100 |  | > 100 | > 100 | > 100 |  |  |  |  |  |  |  |  |  |  |
| N=C(N)c1ccc(N=Nc2c(O)ccc3cc4c(N=Nc5ccc(C(=N)N)cc5)c(O)ccc4cc23)cc1 | > 100 µM | > 100 µM | > 100 µM | > 100 µM | > 100 | > 100 | > 100 µM | > 100 | > 100 | > 100 |  |  |  |  |  |  |  |  |  |  |
| CC(C)(C)c1cc(-c2nc3ccc(N4CCN(CCO)CC4)cc3[nH]2)cc(C(C)(C)C)c1O | > 100 µM | 4.78 µM |  | > 100 µM |  |  |  | 4.91 | 86.1 |  | 3.39 µM | 2.21 | 3.25 µM |  |  |  | 2.13 | 12.7 µM |  |  |
| CCCC[C@H]1C(=O)O[C@H](C)[C@H](NC(=O)c2cccc(NC=O)c2OC)C(=O)O[C@@H](C)[C@@H]1OC(=O)CC(C)C (tested in a mixture with another compound) | 41.4 µM | 27.1 µM | 44.5 µM | 15 µM | 46.9 | 51.4 | 21 µM | 51.9 | 30.1 | 18.9 |  |  |  |  |  |  |  |  |  |  |
| COc1cc(C2C(=O)C(Cl)N2Nc2nc(C)cc(=O)[nH]2)cc(OC)c1OC (configuration not stated) | 68.5 µM |  | > 100 µM | 35 µM | 76.9 | 39.9 |  | 35.1 |  | 36.3 |  |  |  |  |  |  |  |  |  |  |
| O=C(NC(Cc1ccc(Cl)cc1)C(=O)O)c1ccc(I)cc1 (configuration not stated) |  | > 100 µM | > 100 µM | > 100 µM | > 100 | > 100 | > 100 µM | > 100 | > 100 | > 100 |  |  |  |  |  |  |  |  |  |  |
| Cc1ccc2c3c1[C@@H]1O[C@@H]1c1cccc(c1-3)[C@@H]1O[C@H]21 | 31 µM | 33.9 µM | 32 µM |  | 28.8 | 12.8 | 29.6 µM |  | 63.9 | 28.9 |  |  |  |  |  |  |  |  |  |  |
| COc1ccc(N=Nc2c(N)nn(C)c2N)cc1 | > 100 µM | > 100 µM | > 100 µM | > 100 µM | > 100 | > 100 | > 100 µM | > 100 | > 100 | > 100 |  |  |  |  |  |  |  |  |  |  |
| C/C(=C\C(=N\NC(=N)N)c1ccccc1)c1ccccc1 | 1.17 µM | 0.284 µM | 0.7 µM | 2.11 µM | 3.67 | 2.04 | 1.76 µM | 1.85 | 15.7 | 2.04 |  |  |  |  |  |  |  |  |  |  |
| O=c1[nH]c(=O)n(CCOCP(=O)(O)O)nc1Br | > 100 µM | > 100 µM | > 100 µM | > 100 µM | > 100 | > 100 | > 100 µM | > 100 |  | > 100 |  |  |  |  |  |  |  |  |  |  |

| Compound | TGI [1] | TGI [2] | TGI [3] | TGI [4] | TGI [5] [µM] | TGI [6] [µM] | TGI [7] | TGI [8] [µM] | TGI [9] [µM] | TGI [10] [µM] | GI50 [1] | GI50 [2] [µM] | GI50 [4] | GI50 [5] [µM] | GI50 [6] | GI50 [7] | GI50 [8] [µM] | GI50 [9] | GI50 [10] [µM] | GI50 [3] |
| --- | --- | --- | --- | --- | --- | --- | --- | --- | --- | --- | --- | --- | --- | --- | --- | --- | --- | --- | --- | --- |
| Cc1cc(=O)n2c3c(c4c(cc13)c(CN(C)C)cc(=O)n4C)OC2 | 39.1 µM | 35.1 µM | > 100 µM | 41.9 µM | 67.7 | > 100 | 28.4 µM | 24.2 | > 94.7 | > 100 |  |  |  |  |  |  |  |  |  |  |
| O=c1[nH]c2cc([N+](=O)[O-])c(N/N=C/c3ccc(Cl)cc3Cl)c([N+](=O)[O-])c2[nH]1 | > 100 µM | > 100 µM | > 100 µM | 78.3 µM | 25.8 | > 100 | 94 µM | > 100 | 77.5 | > 100 |  |  |  |  |  |  |  |  |  |  |
| O=S(=O)(O)c1ccc2c(N=Nc3ccccc3)c(O)ccc2c1 | > 100 µM | > 100 µM | > 100 µM | > 100 µM | > 100 | > 100 | > 100 µM | > 100 | > 100 | > 100 |  |  |  |  |  |  |  |  |  |  |
| Cc1ccc(C(=O)Nc2ncn(C3CC(O)C(CO)O3)c(=O)n2)cc1 (configuration not stated) |  | > 100 µM | > 100 µM | > 100 µM | > 100 | 97.3 | > 100 µM | > 100 | > 100 | > 100 |  |  |  |  |  |  |  |  |  |  |
| CCCCCCCCCCCCSC(=S)c1c(C)[nH]n(CCCCCCCCCCCC)c1=O | > 100 µM | > 100 µM | > 100 µM | > 100 µM | > 100 | > 100 | > 100 µM | > 100 | > 100 | > 100 |  |  |  |  |  |  |  |  |  |  |
| COC(=O)c1ccc2c(c1)sc1nc(-c3ccc(OC)cc3)cn12 | > 100 µM | > 100 µM | > 100 µM | > 100 µM | > 100 | > 100 | > 100 µM | > 100 | > 100 | > 100 |  |  |  |  |  |  |  |  |  |  |
| COc1cccc(NC(=O)CC(=O)NN2C(=O)/C(=C/c3ccc(N(CCC#N)CCC#N)cc3)N=C2c2cc([N+](=O)[O-])ccc2Cl)c1 | > 100 µM | > 100 µM | > 100 µM | > 100 µM | > 100 | > 100 | > 100 µM | > 100 | > 100 | > 100 |  |  |  |  |  |  |  |  |  |  |
| N#Cc1c(-c2ccc(Cl)cc2)c2c([nH]c1=O)-c1cc([N+](=O)[O-])ccc1CCC2 | > 100 µM | 49.7 µM | 45.9 µM | 60.3 µM | 55.5 | > 100 | 41.8 µM | 35 | > 100 | 41.6 |  |  |  |  |  |  |  |  |  |  |
| C=C1CC2C3C=C(C)C4=CC(=O)CC[C@]4(C)C3CC[C@]2(C)[C@@]1(OC(C)=O)C(C)=O (some centres not stated) |  |  | > 100 µM | > 100 µM |  |  | > 100 µM |  |  |  |  |  | > 100 µM |  |  | 4.21 µM |  |  |  | 7.76 µM |
| COc1ccc2c(c1)CCCc1c-2nc2ccccc2c1N | 29 µM | 3.22 µM | 12.9 µM | 28.7 µM | 30.9 | 66.5 | 28 µM | 24.8 | 24.2 | 25.2 |  |  |  |  |  |  |  |  |  |  |
| Cn1c2cn[nH]c(=O)c2c2ccc3ccccc3c21 | 45.9 µM | > 100 µM | 31.8 µM | 32.2 µM | > 100 | > 100 | 59.5 µM | > 100 | > 100 | 47.1 |  |  |  |  |  |  |  |  |  |  |
| COP(=O)(OC)[C@H](O)[C@H]1C[C@@H]1c1ccccc1 | > 100 µM | > 100 µM | > 100 µM | > 100 µM | > 100 | > 100 | > 100 µM |  | > 100 | > 100 |  |  |  |  |  |  |  |  |  |  |
| COc1ccc(N=Cc2ccc(N(CCC#N)S(=O)(=O)c3ccccc3)cc2C)cc1 | > 100 µM | 96.3 µM | > 100 µM | > 100 µM |  | > 100 | > 100 µM | > 100 | > 100 | > 100 |  |  |  |  |  |  |  |  |  |  |
| C[C@H]1CCC/C=C/[C@@H]2C[C@H](O)C[C@H]2[C@H](O)/C=C/C(=O)O1 | 1.39 µM and 2.36 µM | < 0.01 µM and 0.0354 µM | 9.24 µM and 4.21 µM | 1.12 µM and 0.973 µM and 0.645 µM |  |  | 0.208 µM and 0.213 µM and 0.354 µM |  |  | > 100 | 0.0354 µM and 0.0938 µM and 0.0626 µM |  | 0.0395 µM and 0.107 µM and 0.0723 µM | 0.0197 | < 0.0165 µM and 0.0481 µM and 0.0564 µM | 0.044 µM and 0.0952 µM and 0.115 µM | 0.0321 | 0.0361 µM and 0.0334 µM |  | 0.0216 µM and 0.0722 µM and 0.0915 µM |
| O=C(O)CCCN=C(C1=C(O)C(=O)N(c2ccccc2)C1=O)c1ccccc1 | > 100 µM | > 100 µM | > 100 µM | > 100 µM | > 100 | > 100 | > 100 µM | > 100 | > 100 | > 100 |  |  |  |  |  |  |  |  |  |  |
| CCN(CCO)CCNc1ccc(C)c2sc3ccccc3c(=O)c12 | 15 µM | 3.12 µM | 11 µM | 12.9 µM | 11.2 | 18.8 | 11.4 µM | 10.3 | 18.1 | 12.4 |  |  |  |  |  |  |  |  |  |  |
